Data taken from ChEMBL document CHEMBL3124804, “Discovery of a cyclopentylamine as an orally active dual NK1 receptor antagonist-serotonin reuptake transporter inhibitor” (Bioorg Med Chem Lett, 2014).
Calls of active or inactive are those of the source. The rule behind the calls is not given here.

Key:
Gerbillinae [1] = test: Antidepressant activity in gerbil assessed as reduction of immobility time at 30 mg/kg, po administered 30 mins prior to testing measured over 6 mins by forced swimming test relative to vehicle-treated control; assay type: functional, organism-based; parameters: dose 30 mg/kg
Gerbillinae [2] = test: Neurotoxicity in gerbil assessed as increase in spontaneous locomotor activity at 30 mg/kg, po relative to vehicle-treated control; assay type: toxicity, organism-based; parameters: dose 30 mg/kg, route oral; settings: in vivo
[3] = Drug uptake in gerbil brain at 30 mg/kg, po; assay type: ADME, organism-based; parameters: dose 30 mg/kg, route oral; settings: gerbillinae, in vivo, read-out: Drug uptake
[4] = molecular target: Sodium-dependent serotonin transporter (Homo sapiens, UniProt P31645); test: Inhibition of human SERT
Gerbillinae [5] = test: Antidepressant activity in gerbil assessed as reduction of immobility time at 3 to 10 mg/kg, po administered 30 mins prior to testing measured over 6 mins by forced swimming test relative to vehicle-treated control; assay type: functional, organism-based
[6] = Plasma concentration in gerbil at 30 mg/kg, po; assay type: ADME, organism-based; parameters: dose 30 mg/kg, route oral; settings: gerbillinae, in vivo
Substance-P receptor = Substance-P receptor (Homo sapiens, UniProt P25103); test: Antagonist activity at human NK1 receptor
Substance-P receptor, sequence (P25103 whole entry): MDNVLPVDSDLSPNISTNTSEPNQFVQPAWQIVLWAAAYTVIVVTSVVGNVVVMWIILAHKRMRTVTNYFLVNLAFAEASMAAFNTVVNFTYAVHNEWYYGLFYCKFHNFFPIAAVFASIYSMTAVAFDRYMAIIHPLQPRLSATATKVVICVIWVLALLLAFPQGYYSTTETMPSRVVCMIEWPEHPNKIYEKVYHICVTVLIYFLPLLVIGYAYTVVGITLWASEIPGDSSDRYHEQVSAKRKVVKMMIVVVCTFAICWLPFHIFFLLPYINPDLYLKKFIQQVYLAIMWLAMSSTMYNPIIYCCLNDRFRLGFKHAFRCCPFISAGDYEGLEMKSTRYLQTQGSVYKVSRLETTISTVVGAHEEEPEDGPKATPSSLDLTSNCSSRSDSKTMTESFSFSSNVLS

Sodium-dependent serotonin transporter, sequence (P31645 whole entry): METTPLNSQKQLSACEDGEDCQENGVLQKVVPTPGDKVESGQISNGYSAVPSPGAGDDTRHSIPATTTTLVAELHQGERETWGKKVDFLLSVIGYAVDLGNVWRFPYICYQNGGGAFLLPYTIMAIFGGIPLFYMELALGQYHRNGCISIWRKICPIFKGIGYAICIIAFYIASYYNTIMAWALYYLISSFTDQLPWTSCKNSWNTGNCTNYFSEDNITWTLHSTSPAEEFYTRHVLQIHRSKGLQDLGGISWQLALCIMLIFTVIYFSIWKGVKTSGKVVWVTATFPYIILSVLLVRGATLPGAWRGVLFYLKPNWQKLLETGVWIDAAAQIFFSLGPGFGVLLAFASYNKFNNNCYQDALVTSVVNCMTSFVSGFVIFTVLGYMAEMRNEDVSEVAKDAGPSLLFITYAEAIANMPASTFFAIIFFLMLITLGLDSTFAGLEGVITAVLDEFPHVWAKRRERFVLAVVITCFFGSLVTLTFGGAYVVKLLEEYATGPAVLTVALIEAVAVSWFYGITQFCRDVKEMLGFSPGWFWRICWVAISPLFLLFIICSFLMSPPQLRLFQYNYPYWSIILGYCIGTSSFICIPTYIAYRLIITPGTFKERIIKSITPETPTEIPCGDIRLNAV

Row | IC50 [4] | IC50 (Substance-P receptor) | Structure (SMILES) | further results
1 | 0.21 µM | 0.031 µM | N[C@@H]1CC[C@](COCc2cc(C(F)(F)F)cc(C(F)(F)F)c2)(c2ccccc2)C1 | 
2 | 0.52 µM | 0.12 µM | CN1CCN(C2CCC(COCc3cc(C(F)(F)F)cc(C(F)(F)F)c3)(c3ccccc3)CC2)CC1 (mixture of isomers) | 
3 | 0.15 µM | 0.014 µM | CCNC1CCC(COCc2cc(C(F)(F)F)cc(C(F)(F)F)c2)(c2ccccc2)CC1 (mixture of isomers) | 
4 | 0.68 µM | 0.074 µM | FC(F)(F)c1cc(COCC2(c3ccccc3)CCC(NC3CC3)CC2)cc(C(F)(F)F)c1 (mixture of isomers) | 
5 | 0.25 µM | 0.048 µM | CN(C)C1CCC(COCc2cc(C(F)(F)F)cc(C(F)(F)F)c2)(c2ccccc2)CC1 (mixture of isomers) | 
6 | 0.28 µM | 0.038 µM | CCN(CC)C1CCC(COCc2cc(C(F)(F)F)cc(C(F)(F)F)c2)(c2ccccc2)CC1 (mixture of isomers) | 
7 | 0.057 µM | 0.008 µM | CN(C)C1CCC(COCc2cc(C(F)(F)F)cc(C(F)(F)F)c2)(c2ccccc2)C1 (mixture of isomers) | 
8 | 0.53 µM | 0.016 µM | FC(F)(F)c1cc(COCC2(c3ccccc3)CCC(NC3CC3)C2)cc(C(F)(F)F)c1 (mixture of isomers) | 
9 | 0.19 µM | 0.016 µM | CNC1CCC(COCc2cc(C(F)(F)F)cc(C(F)(F)F)c2)(c2ccccc2)CC1 (mixture of isomers) | 

Second part, the compound before the results:

Row | Structure (SMILES) | IC50 [4] | IC50 (Substance-P receptor) | further results
10 | N[C@H]1CC[C@@](COCc2cc(C(F)(F)F)cc(C(F)(F)F)c2)(c2ccccc2)C1 | 0.0047 µM | 0.0075 µM | Activity (Gerbillinae [1]): Active; Activity (Gerbillinae [2]): Non-toxic; concentration [3]: 7.4 µM; Activity (Gerbillinae [5]): inactive; concentration [6]: 0.3 µM
11 | N[C@H]1CC[C@](COCc2cc(C(F)(F)F)cc(C(F)(F)F)c2)(c2ccccc2)C1 | 0.35 µM | 0.019 µM | 
12 | N[C@@H]1CC[C@@](COCc2cc(C(F)(F)F)cc(C(F)(F)F)c2)(c2ccccc2)C1 | 0.13 µM | 0.011 µM | 
13 | FC(F)(F)c1cc(COCC2(c3ccccc3)CCC(N3CCOCC3)CC2)cc(C(F)(F)F)c1 (mixture of isomers) | > 1 µM | 0.35 µM | 
14 | FC(F)(F)c1cc(COCC2(c3ccccc3)CCC(N3CCCC3)CC2)cc(C(F)(F)F)c1 (mixture of isomers) | > 1 µM | 0.12 µM | 
15 | FC(F)(F)c1cc(COCC2(c3ccccc3)CCC(N3CCCCC3)CC2)cc(C(F)(F)F)c1 (mixture of isomers) | 0.97 µM | 0.093 µM | 
16 | CC(C)N(C(C)C)C1CCC(COCc2cc(C(F)(F)F)cc(C(F)(F)F)c2)(c2ccccc2)C1 (mixture of isomers) | > 1 µM | 0.47 µM | 
17 | COCCN(C)C1CCC(COCc2cc(C(F)(F)F)cc(C(F)(F)F)c2)(c2ccccc2)C1 (mixture of isomers) | > 1 µM | 0.02 µM | 
18 | FC(F)(F)c1cc(COCC2(c3ccccc3)CCC(N3CCCC3)C2)cc(C(F)(F)F)c1 (mixture of isomers) | > 1 µM | 0.014 µM | 
19 | FC(F)(F)c1cc(COCC2(c3ccccc3)CCC(N3CCCCC3)C2)cc(C(F)(F)F)c1 (mixture of isomers) | > 1 µM | 0.0047 µM | 
20 | FC(F)(F)c1cc(COCC2(c3ccccc3)CCC(N3CCOCC3)C2)cc(C(F)(F)F)c1 (mixture of isomers) | > 1 µM | 0.045 µM | 
